The subject of data set [1] is Hh target gene Gli1 expression in NIH3T3-E1 cells. The data set is described as follows: Inhibition of CAPAN-1 conditioned medium (ligand)-induced Gli1 mRNA expression, Q-RT-PCR. The following applies: 72 h. Type of data set: cell-based. The text has this: NIH3T3-E1 fibroblasts were obtained from ATCC (Manassas, VA) and cultured, as previously described. CAPAN-1 and PANC-1 human pancreatic cancer cells were obtained from ATCC and cultured in Dulbecco’s Modified Eagle Medium (DMEM) containing 10% heat-inactivated fetal bovine serum (FBS) (Hyclone Laboratories, Logan, UT, USA) and antibiotics, as previously described. The human lung cancer cell lines A549 and H2030 were obtained from ATCC and cultured in RPMI-1640 containing 10% FBS. The human hepatoma cell line HepG2 was obtained from ATCC and cultured in DMEM containing 10% FBS. Mouse embryonic fibroblasts (MEFs) from suppressor of fused (Sufu) null mice (Sufu^−/−) were provided by Dr. Philip Beachy of Stanford University and cultured in DMEM containing 10% FBS. Gant61, SB431542 and vismodegib (GDC0449) were obtained from Cayman Chemical, HPI-1 was obtained from Abcam. For experiments, cells were treated in a medium containing 5% FBS.
Growth medium in confluent […] tissue culture plates of CAPAN-1 cells were replaced with 10 ml of fresh growth medium and cells were incubated for a total of 7 days. Conditioned medium (CM), containing Shh and Ihh, was collected and spun down to remove any detached cells and debris, aliquoted, and stored frozen at −80 °C [37].
Total RNA was extracted with the RNeasy Plus Mini Kit from Qiagen, according to the manufacturer’s instructions. One microgram of RNA was reverse-transcribed using an iScript Reverse Transcription Supermix from Bio-Rad, to make single-stranded cDNA. The cDNAs were then mixed with Qi SYBR Green Supermix (Bio-Rad, Hercules, CA, USA) for quantitative RT-PCR assay using a Bio-Rad I-cycler IQ quantitative thermocycler. […] Fold changes in gene expression were calculated using the ΔΔCt method. […]
(§1) Figure 3 Inhibition of ligand-induced Hedgehog signaling. […] After 72 h, RNA was extracted and analyzed by Q-RT-PCR for the expression of Hh target genes Gli1 (a,b,d) and Ptch1 (c), and normalized to Oaz1 expression. […] Luciferase activity was measured and normalized to the Renilla luciferase activity. […]

For data set [2], the system named is Hh target gene Ptch1 expression in NIH3T3-E1 cells. The data set is described as follows: Inhibition of CAPAN-1 conditioned medium-induced Ptch1 mRNA expression, Q-RT-PCR. The format is cell-based, mouse. The following applies: CAPAN-1 CM, 72 h.
Source text: NIH3T3-E1 fibroblasts were obtained from ATCC (Manassas, VA) and cultured, as previously described. CAPAN-1 and PANC-1 human pancreatic cancer cells were obtained from ATCC and cultured in Dulbecco’s Modified Eagle Medium (DMEM) containing 10% heat-inactivated fetal bovine serum (FBS) (Hyclone Laboratories, Logan, UT, USA) and antibiotics, as previously described. The human lung cancer cell lines A549 and H2030 were obtained from ATCC and cultured in RPMI-1640 containing 10% FBS. The human hepatoma cell line HepG2 was obtained from ATCC and cultured in DMEM containing 10% FBS. […]
Total RNA was extracted with the RNeasy Plus Mini Kit from Qiagen, according to the manufacturer’s instructions. […] The cDNAs were then mixed with Qi SYBR Green Supermix (Bio-Rad, Hercules, CA, USA) for quantitative RT-PCR assay using a Bio-Rad I-cycler IQ quantitative thermocycler. […] Fold changes in gene expression were calculated using the ΔΔCt method. […]
as §1

The test system of data set [3] is Smo mediated activation of Hh signaling in NIH3T3 cells. The data set is described as follows: Inhibition of Hh signaling from allosteric activation of Smo by Oxy133, Q-RT-PCR. As to conditions: 72 h. Type of data set: cell-based, mouse. As to the method:
Total RNA was extracted with the RNeasy Plus Mini Kit from Qiagen, according to the manufacturer’s instructions. One microgram of RNA was reverse-transcribed using an iScript Reverse Transcription Supermix from Bio-Rad, to make single-stranded cDNA. The cDNAs were then mixed with Qi SYBR Green Supermix (Bio-Rad, Hercules, CA, USA) for quantitative RT-PCR assay using a Bio-Rad I-cycler IQ quantitative thermocycler. All PCR samples were prepared in triplicate wells in a 96-well plate. After 40 cycles of PCR, melt curves were examined in order to ensure primer specificity. Fold changes in gene expression were calculated using the ΔΔCt method. Primers used for mouse were as follows: Oaz1 (5’-CCACTGCTTCGCCAGAGAG-3’) and (5’-CCCGGACCCAGGTTACTA-3’), Gli1 (5’-[…]-3’ and 5’-[…]-3’), Ptch1 (5’-CCATCGGCGACAAGAACC-3’ and 5’-[…]-3’), Hip (5’-[…]-3’ and 5’-[…]-3’), and Abca1 (5’-[…]-3’ and 5’-[…]-3’). […]
as §1

In a further data set the test system is CAPAN-1 cells. The data set is described as follows: Cell counting assay, CAPAN-1. The following applies: 96 h. Type of data set: cell-based, human. How it is done:
A549 and H2030 cells cultured in 12-well plates at 20% confluence were treated with Oxy186, HPI-1, Gant61, or GDC0449 for 96 hours and then trypsinized and suspended in fresh medium. An aliquot of cell suspension was applied to a hemocytometer and counted under a microscope.
Figure 6 Inhibition of human pancreatic and lung cancer cell proliferation by Oxy186. (a,c) A549, (b) and (d) H2030, (e) PANC-1, and (f) CAPAN-1 cells were treated with the compounds as indicated in RPMI 1640 (a–d) or DMEM (e,f) containing 5% FBS for 96 h and then were trypsinized and counted. Data from a representative experiment are reported as the mean of triplicate determinations ± SD (* p < 0.05 vs. Control; ** p < 0.01 vs. control).

Data set [4] can be described thus: Pharmacokinetic study in mice, single oral dose. Type of data set: in vivo, balb/c mice. As to conditions: for Cmax: read-out: maximum serum concentration (Cmax). As to the method: In an initial assessment of the drug-like properties of Oxy186, we performed a pharmacokinetic (PK) study in mice. Oxy186, formulated in 4% ethanol, 15% DMSO, and 81% corn oil, was administered to balb/c mice by oral gavage as a single dose of 50 mg/kg.
Figure 8 Drug-like properties of Oxy186. (a) A single dose of Oxy186 at 50 mg/kg, formulated in 4% ethanol/ 15% DMSO/ 81% corn oil, was administered to balb/c mice by oral gavage. Plasma samples were taken at 10 min, 30 min, 1, 2, 4, 6, 8, and 24 h, followed by LC/MS analysis of the plasma. (b) Evolution of Oxy186 from parent compound Oxy16 and their drug-like properties.

Data set [5] in a line: Metabolic stability in mouse liver microsomes. The format is in vitro ADME.
Where [6] appears, read: mouse, plasma, balb/c mice, 50 mg/kg, oral gavage, single dose.

Entries after “also recorded” stand apart in the source; their conditions may differ. Like-named read-outs stand apart in the source and are kept apart here.

A word on the IC50: it is the midpoint of a concentration-inhibition curve. Low readings indicate greater potency in that assay, high ones weaker potency in that assay. Usually Tmax stands for the time at which the peak concentration occurs. As a reminder, the AUC is the area under the concentration-time curve, a measure of exposure. A word on the fraction remaining: it is what is left of the initial amount, in per cent. On to `C[C@]12CC[C@H](O)C[C@@H]1CC[C@@H]1[C@@H]2CC[C@@]2(C)[C@H]1CC[C@@H]2[C@](C)(O)CCc1ccc(F)cc1` [Oxy186, (3S,5S,8R,9S,10S,13S,14S,17S)-17-((R)-4-(4-fluorophenyl)-2-hydroxybutan-2-yl)-10,13-dimethylhexadecahydro-1H-cyclopenta[a]phenanthren-3-ol], for which the “Inhibition of ligand-induced Gli1 mRNA expression” value in data set [1] (NIH3T3-E1 cells, CAPAN-1 CM) is “robustly inhibited; also recorded: greater Hh signaling inhibitory efficacy than Oxy16”. Also, the half-maximal inhibitory concentration (IC50) in data set [1] (NIH3T3 cells activated by CAPAN-1 CM Hh ligands) turned out to be 0.6 µM. In addition, in data set [2], the “Inhibition of ligand-induced Ptch1 mRNA expression” value is reported as “robustly inhibited”. Further, in data set [3], the “Suppression of Hh signaling from allosteric activation of Smo by Oxy133” value is listed as “significantly suppressed”. In the data set on CAPAN-1 cells, the Anti-proliferation effect result is reported as “significant anti-proliferation effects; also recorded: moderate anti-proliferative effects”. For the same molecule, the “In vivo availability / stability (Figure 8b summary)” value in data set [4] (Figure 8b drug-like properties summary) is recorded as “Orally available in mice”. In addition, in data set [4] (balb/c mice, 50 mg/kg, oral gavage, single dose), the Tolerability result is recorded as “well tolerated; also recorded: no overt signs of toxicity”. Moreover, the time of peak concentration (Tmax) in data set [4] (setting [6]) worked out at 2 h. Also, the AUC turned out to be 10.5 µg·h/mL in data set [4] (mouse, plasma, balb/c mice, 50 mg/kg, oral gavage, single dose, read-out: area under the curve (AUC)) and 23.7 µM·h in data set [4] (mouse, plasma, balb/c mice, 50 mg/kg, oral gavage, converted from ng/mL, read-out: area under the curve (AUC), molar). Also, the Cmax in data set [4] (setting [6]) worked out at 1.49 µg/mL; in data set [4] (mouse, plasma, balb/c mice, 50 mg/kg, oral gavage, converted with MW = 442.32) it was 3.4 µM. The half-life was 4.5 h in data set [4] (mouse, plasma, balb/c mice, 50 mg/kg, oral gavage, single dose, read-out: oral half-life (T1/2) (converted)) and 1 h in data set [5] (read-out: MLM, Half-Life). Besides, the share remaining at 1 h in data set [5] (60 min, read-out: MLM, % Remaining after 60 min) was found to be 50%.

Values taken from publication PMC6562610, “Inhibition of Hedgehog Signaling in Fibroblasts, Pancreatic, and Lung Tumor Cells by Oxy186, an Oxysterol Analogue with Drug-Like Properties” (Cells, 2019).
